From patent US7034035B2, “Fungicidal mono-, bi-, and tri-cycloheteroalkyl amides and their compositions, methods of use and preparation” (priority 1999, dated 2006)

Tests used:
Ustilago maydis (USTIMA) = assay: microbe, parasite or virus in culture; assay type: cell-based
[1] = tested on: Rhizoctonia solani (RHIZSO); assay: microbe, parasite or virus in culture; assay type: cell-based
Further: test concentration or dose not given here.

Row | Compound | USTIMA in vitro Growth Inhibition (Ustilago maydis (USTIMA)) | RHIZSO in vitro Growth Inhibition [1]
1 | COc1ccnc(C(=O)NC2CC(C)(C)C(OC(=O)CC(C)C)C(C)(C)C2)c1O (stereo not shown) [Compound 267] | + (key: +: at least 80% growth inhibition; −: less than 80% growth inhibition) | − (key: +: at least 80% growth inhibition; −: less than 80% growth inhibition)
2 | COc1ccnc(C(=O)NC2CC(C)(C)CC(C)(C(=O)OCCC(C)(C)C)C2)c1O (stereo not shown) [Compound 261] | − (key: +: at least 80% growth inhibition; −: less than 80% growth inhibition) | − (key: +: at least 80% growth inhibition; −: less than 80% growth inhibition)
3 | COc1ccnc(C(=O)NC2CCC[C@H]3CC(CCC=C(C)C)=CC[C@@H]23)c1O (stereo partly shown) [Compound 286] | − (key: +: at least 80% growth inhibition; −: less than 80% growth inhibition) | + (key: +: at least 80% growth inhibition; −: less than 80% growth inhibition)
4 | COc1ccnc(C(=O)NC2C[C@H](C)O[C@](C)(Cc3ccccc3)C2)c1O (stereo partly shown) [Compound 313] | − (key: +: at least 80% growth inhibition; −: less than 80% growth inhibition) | − (key: +: at least 80% growth inhibition; −: less than 80% growth inhibition)
5 | O=C(NCc1ccc(Cl)c(Cl)c1)c1ncccc1O [Compound 221] | − (key: +: at least 80% growth inhibition; −: less than 80% growth inhibition) | − (key: +: at least 80% growth inhibition; −: less than 80% growth inhibition)
6 | Cc1ccnc(C(=O)Nc2ccc(Oc3cccc(C(F)(F)F)c3)cc2)c1O [Compound 238] | − (key: +: at least 80% growth inhibition; −: less than 80% growth inhibition) | − (key: +: at least 80% growth inhibition; −: less than 80% growth inhibition)
7 | CC(NC(=O)c1ncccc1O)c1ccc(Cl)cc1 (stereo not shown) [Compound 230] | − (key: +: at least 80% growth inhibition; −: less than 80% growth inhibition) | − (key: +: at least 80% growth inhibition; −: less than 80% growth inhibition)
8 | O=C(NCc1cccc(Cl)c1)c1ncccc1O [Compound 219] | + (key: +: at least 80% growth inhibition; −: less than 80% growth inhibition) | + (key: +: at least 80% growth inhibition; −: less than 80% growth inhibition)
9 | Cc1cccc(CNC(=O)c2ncccc2O)c1 [Compound 222] | − (key: +: at least 80% growth inhibition; −: less than 80% growth inhibition) | − (key: +: at least 80% growth inhibition; −: less than 80% growth inhibition)
10 | COc1cccc(CNC(=O)c2ncccc2O)c1 [Compound 225] | − (key: +: at least 80% growth inhibition; −: less than 80% growth inhibition) | − (key: +: at least 80% growth inhibition; −: less than 80% growth inhibition)
11 | COc1ccnc(C(=O)N[C@@H]2OC[C@@H](OCc3ccccc3)[C@H](OCc3ccccc3)[C@H]2OCc2ccccc2)c1O [Compound 332] | − (key: +: at least 80% growth inhibition; −: less than 80% growth inhibition) | − (key: +: at least 80% growth inhibition; −: less than 80% growth inhibition)
12 | COc1ccnc(C(=O)N[C@@H]2CC3CC2[C@@H](c2ccccc2)[C@@H]3C(=O)OC(C)C)c1O (stereo partly shown) [Compound 300] | − (key: +: at least 80% growth inhibition; −: less than 80% growth inhibition) | + (key: +: at least 80% growth inhibition; −: less than 80% growth inhibition)
13 | COc1ccc(CNC(=O)c2ncccc2O)cc1 [Compound 226] | − (key: +: at least 80% growth inhibition; −: less than 80% growth inhibition) | − (key: +: at least 80% growth inhibition; −: less than 80% growth inhibition)
14 | COc1ccnc(C(=O)NC2CCCC2O)c1O (stereo not shown) [Compound 248] | − (key: +: at least 80% growth inhibition; −: less than 80% growth inhibition) | − (key: +: at least 80% growth inhibition; −: less than 80% growth inhibition)
15 | COc1ccnc(C(=O)N[C@@H]2CC3CC2C2C(=O)N(CC(C)C)C(=O)C32)c1O (stereo partly shown) [Compound 303] | − (key: +: at least 80% growth inhibition; −: less than 80% growth inhibition) | − (key: +: at least 80% growth inhibition; −: less than 80% growth inhibition)
16 | CCC1(C)OCC(NC(=O)c2nccc(OC)c2O)CO1 (stereo not shown) [Compound 314] | − (key: +: at least 80% growth inhibition; −: less than 80% growth inhibition) | − (key: +: at least 80% growth inhibition; −: less than 80% growth inhibition)

Row | Compound | USTIMA in vitro Growth Inhibition (Ustilago maydis (USTIMA)) | RHIZSO in vitro Growth Inhibition [1]
17 | COc1ccnc(C(=O)N[C@@H]2OC[C@@H](OC(C)=O)[C@H](OC(C)=O)[C@H]2OC(C)=O)c1O [Compound 330] | − (key: +: at least 80% growth inhibition; −: less than 80% growth inhibition) | − (key: +: at least 80% growth inhibition; −: less than 80% growth inhibition)
18 | CC1(C)CC(NC(=O)c2ncccc2O)CC(C)(C)C1=O [Compound 205] | − (key: +: at least 80% growth inhibition; −: less than 80% growth inhibition) | − (key: +: at least 80% growth inhibition; −: less than 80% growth inhibition)
19 | COc1ccnc(C(=O)NC2CC(C)(C)C(=O)C(C)(C)C2)c1O [Compound 266] | − (key: +: at least 80% growth inhibition; −: less than 80% growth inhibition) | − (key: +: at least 80% growth inhibition; −: less than 80% growth inhibition)
20 | CCCCC1(C)CCCC(NC(=O)c2nccc(OC)c2O)C1 (stereo not shown) [Compound 254] | − (key: +: at least 80% growth inhibition; −: less than 80% growth inhibition) | − (key: +: at least 80% growth inhibition; −: less than 80% growth inhibition)
21 | COc1ccnc(C(=O)NC2C[C@H](C)O[C@@](C)(Cc3ccccc3)C2)c1O (stereo partly shown) [Compound 312] | − (key: +: at least 80% growth inhibition; −: less than 80% growth inhibition) | − (key: +: at least 80% growth inhibition; −: less than 80% growth inhibition)
22 | COc1ccnc(C(=O)NCC#CCCl)c1O [Compound 239] | − (key: +: at least 80% growth inhibition; −: less than 80% growth inhibition) | − (key: +: at least 80% growth inhibition; −: less than 80% growth inhibition)
23 | O=C(NCc1ccc(Cl)cc1)c1ncccc1O [Compound 220] | + (key: +: at least 80% growth inhibition; −: less than 80% growth inhibition) | + (key: +: at least 80% growth inhibition; −: less than 80% growth inhibition)
24 | COc1cccc(CNC(=O)c2ncccc2O)c1OC [Compound 227] | − (key: +: at least 80% growth inhibition; −: less than 80% growth inhibition) | − (key: +: at least 80% growth inhibition; −: less than 80% growth inhibition)
25 | COC(=O)C(CO)NC(=O)c1nccc(OC)c1O (stereo not shown) [Compound 340] | − (key: +: at least 80% growth inhibition; −: less than 80% growth inhibition) | − (key: +: at least 80% growth inhibition; −: less than 80% growth inhibition)
26 | COc1ccnc(C(=O)NC2CC3OC2C(C)C(OC(=O)C(C)C)C3C)c1O (stereo not shown) [Compound 320] | − (key: +: at least 80% growth inhibition; −: less than 80% growth inhibition) | − (key: +: at least 80% growth inhibition; −: less than 80% growth inhibition)
27 | CC(C)C(=O)OC1CCC(NC(=O)c2ncccc2O)CC1 (stereo not shown) [Compound 210] | − (key: +: at least 80% growth inhibition; −: less than 80% growth inhibition) | − (key: +: at least 80% growth inhibition; −: less than 80% growth inhibition)
28 | COc1cc(NC(=O)c2ncccc2O)cc(OC)c1 [Compound 216] | − (key: +: at least 80% growth inhibition; −: less than 80% growth inhibition) | − (key: +: at least 80% growth inhibition; −: less than 80% growth inhibition)
29 | CC(NC(=O)c1ncccc1O)c1ccccc1 (stereo not shown) [Compound 229] | − (key: +: at least 80% growth inhibition; −: less than 80% growth inhibition) | − (key: +: at least 80% growth inhibition; −: less than 80% growth inhibition)
30 | COc1ccnc(C(=O)NC2O[C@H](CO)[C@H]3OC(C)(C)O[C@@H]23)c1O (stereo partly shown) [Compound 329] | − (key: +: at least 80% growth inhibition; −: less than 80% growth inhibition) | − (key: +: at least 80% growth inhibition; −: less than 80% growth inhibition)
31 | O=C(NC1CCCCCCC1)c1ncccc1O [Compound 203] | − (key: +: at least 80% growth inhibition; −: less than 80% growth inhibition) | + (key: +: at least 80% growth inhibition; −: less than 80% growth inhibition)
32 | CC1(C)CC(NC(=O)c2ncccc2O)CC(C)(C2CC2)C1 (stereo not shown) [Compound 204] | − (key: +: at least 80% growth inhibition; −: less than 80% growth inhibition) | − (key: +: at least 80% growth inhibition; −: less than 80% growth inhibition)
